# Read-outs that look alike come from different tables or passages of the source.
# What was measured:
# [1] = system: Aspergillus niger ATCC 16404; assay: microbe, parasite or virus in culture; assay type: cell-based; conditions: Aspergillus niger, ATCC16404; read-out: Minimum Fungicidal Concentration, Aspergillus niger ATCC 16404
# Experimental: (§1) The anti-fungal activity of Domain III derived peptides was evaluated against a variety of fungal species, including species of Candida. Cryptococcus, Fusarium, Trichophyton, and Aspergillus, by an additional assay protocol utilizing Alamar Blue. Alamar Blue is an indicator dye formulated to measure quantitatively the proliferation of a variety of human or animal cells, bacteria, or fungi. It consists of an oxidation-reduction (REDOX) indicator that yields a colorimetric change in response to metabolic activity. For these experiments, species of Candida and Cryptococcus were grown in Sabouraud's dextrose broth (SDB) overnight. Strains of filamentous fungi (Aspergilius, Fusanum, Trichophyton) were obtained by irrigation of a confluent culture from a petri dish. Cells were washed and adjusted to a concentration of 5.0×10^3/mL in fresh SDB. […] Controls included amphotericin B, fluconazole, ketoconazole and griseofulvin. Antifungal drugs were also diluted in the same manner. Assays were performed in 96-well microuiter plates. […] The wells to be plated were determined by OD590 readings. The lowest concentration of peptide which maintained the blue color (or OD reading) of the blank was chosen along with the next two higher concentrations. Plates were allowed to grow for 18-48 hours depending on the rate of growth of each fungus. Minimal fungicidal activity (MFC) was determined as a 99.9% killing of the starting inoculum.
# [2] = system: Candida albicans (SLU-1 and ATCC strains); assay: microbe, parasite or virus in culture; assay type: cell-based; conditions: Candida albicans
# Experimental: as §1
# [3] = system: Candida glabrata ATCC 2001; assay: microbe, parasite or virus in culture; assay type: cell-based; conditions: Nakaseomyces glabratus, ATCC2001; read-out: Minimum Fungicidal Concentration, Candida glabrata ATCC 2001
# Experimental: as §1
# [4] = system: Candida parapsilosis ATCC 22019; assay: microbe, parasite or virus in culture; assay type: cell-based; conditions: Lodderomyces parapsilosis, ATCC22019; read-out: Minimum Fungicidal Concentration, Candida parapsilosis ATCC 22019
# Experimental: as §1
# [5] = system: Fusarium solani ATCC 36031; assay: microbe, parasite or virus in culture; assay type: cell-based; conditions: Fusarium solani, ATCC36031; read-out: Minimum Fungicidal Concentration, Fusarium solani ATCC 36031
# Experimental: as §1
# [6] = system: Candida albicans SLU-1; assay: Radial diffusion assay (Example 3), wild type strain; assay type: cell-based; conditions: FIG. 2A
# Experimental: (§2) For the radial diffusion assays, Candida albicans SLU-1 were grown as described above and SLU-2G were grown overnight in Sabouraud dextrose broth supplemented with 10 μg/mL amphotericin B and 5 μg/mL ceftriaxone at 37° C. Cultures were diluted 1:25 into fresh, unsupplemented broth and allowed to grow for 5 hours at 37° C. Cells were pelleted at 1,500×g for 5 minutes at 4° C. Supernatant was decanted and replaced with 5 mL of 10 mM phosphate buffer, pH 7.4. After centrifugation the cell pellets were resuspended with 5 mL phosphate buffer for an OD570 determination. One OD570 for SLU-1 cells was 3×10^7 CFU/mL and for SLU-2G cells was 5×10^6 CFU/mL.
# (§3) Cells were added to 10 mL of molten, cooled (˜45° C.) underlayer agarose to a concentration of 1×10^6/mL and the suspension was poured into a level square petri plate with gentle rocking to allow even distribution and solidification to a uniform thickness of about 1 mm. Wells were cut into the hardened agarose with a sterilize, 3 mm diameter punch with vacuum.
# Peptides were two-fold serially diluted with DPBS from a starting concentration of approximately 1 mg/mL. Amphotericin B and nystatin were similarly diluted starting at 100 and 225 μg/mL, respectively. Five μL were added per well and allowed to diffuse at 37° C. for 1.5-2.0 hours. Then 10 mL of molten overlayer agarose were added and the plates were incubated inverted at 37° C. overnight. Plates were stained with a dilute Coomassie solution, inhibition zones were measured with calipers and net areas were calculated, then converted to pmol values by PROBIT analysis. The results of a representative experiment are shown in FIG. 2A for the SLU-1 strain and FIG. 2B for the SLU-2G strain. In FIGS. 2A and 2B, the fungicidal activity is represented for XMP.13 as open circles; for XMP.37 as closed circles; for XMP.97 as open triangles; for XMP.127 as closed triangles; for amphotericin B as open squares; and for nystatin as closed squares. The pmol for a 30 mm^2 zone of inhibition were calculated to be: for XMP.13, 689 pmol against SLU-1 and 129 pmol against SLU-2G; for XMP.37, 231 pmol against SLU-1 and 75 pmol against SLU-2G; for XMP.97, 670 pmol against SLU-1 and 161 pmol against SLU-2G; for XMP.127, 935 pmol against SLU-1 and 116 pmol against SLU-2G; for amphotericin B, 36 pmol against SLU-1 and >541 pmol for SLU-2G; and for nysttin, 98 pmol against SLU-1 and >1,215 pmol against SLU-2G.
# [7] = system: Candida albicans SLU-2G amphotericin B-resistant strain; assay: Radial diffusion assay (Example 3), amphotericin B-resistant strain; assay type: cell-based; conditions: FIG. 2B
# Experimental: Domain III derived peptides were tested for their fungicidal activity on amphotericin resistant Candida. Resistant colonies of Candida were isolated using a gradient plate technique. A slanted Sabouraud dextrose agar plate was poured and allowed to harden. The plate was made level and additional agar supplemented with nystatin (Sigma, St. Louis, Mo., cat. no. N-3503) at a concentration of 10 μg/mL was poured. Cells from the CA-1 colony of Candida albicans SLU-1 strain described in Example 2 (10^7 cells in a volume of 100 μL) were spread over the plate and incubated at […] overnight.
# as §2, with “determination.” for “determination. One OD570 for SLU-1 cells was 3×10^7 CFU/mL and for SLU-2G cells was 5×10^6 CFU/mL.”
# as §3
# Peptides were two-fold serially diluted with DPBS from a starting concentration of approximately 1 mg/mL. […] Five μL were added per well and allowed to diffuse at 37° C. for 1.5-2.0 hours. Then 10 mL of molten overlayer agarose were added and the plates were incubated inverted at 37° C. overnight. Plates were stained with a dilute Coomassie solution, inhibition zones were measured with calipers and net areas were calculated, then converted to pmol values by PROBIT analysis.
# [8] = system: C. albicans (CA-1, Strain SLU-1); assay: Radial diffusion assay; assay type: cell-based, Candida albicans; conditions: pmoles of peptide added to well to achieve a 30 mm^2 zone, PROBIT analysis, crude or purified (P′) peptide
# Method in brief: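 Yeast at 1×10^6 CFU/mL in agarose underlayer (3% Sabouraud, 10 mM sodium phosphate pH 7.4); 2-fold peptide dilutions in D-PBS from ~1 mg/mL loaded into wells, 3 h at 37° C, then nutrient overlayer overnight. Value: pmol/well giving 30 mm^2 net clear zone, by PROBIT regression.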
# [9] = system: Candida albicans; assay: Radial diffusion assay, Candida species (Table 2); assay type: cell-based; conditions: higher effective concentration of agarose than Table 1
# [10] = system: Candida glabrata; assay: Radial diffusion assay, Candida species (Table 2); assay type: cell-based
# Experimental: (§4) The anti-fungal activity of Domain III derived peptides was also evaluated in vitro against a variety of fungal species, including Candida glabrata, Candida krusei, Candida lusitaniae, Candida parapsilosis, and Candida tropicalis. For these experiments, one colony of each of the above-listed Candida strains was picked from a Sabouraud's dextrose agar (SDA) plate and inoculated into 5 mL of Sabouraud's dextrose broth (SDB, 2% dextrose and 1% neopeptone) or, for C. krusei, Yeast Malt broth (YM, Becton Dickenson, Cockeysville, Md., cat no. BL 11405) in 12 mL polyproplyene snap-cap tubes. The tube cultures were incubated overnight with shaking at 37° C.
# (§5) Cultures were harvested when the OD570 of a 1:10 dilution was greater than or equal to the following values: 0.083 for Candida glabrata, 0.154 for Candida krusei, 0.117 for Candida lusitaniae, 0.076 for Candida parapsilosis, and 0.192 for Candida tropicalis. Cells were centrifuged for 7 minutes in an Eppendorf microfuge at 3,000 rpm (about 1,500 g). The cell pellet was resuspended in 1 mL PBS and approximately 1×10^7 cells in about 0.5 mL were added to 10 mL of cooled underlay agar (3% SBD, 1% agarose, 0.02% Tween 20, 10 mM sodium phosphate buffer, pH 7.4 at about 45° C.). The suspension was poured into square petri plates, allowed to solidify, and wells cut as described above.
# (§6) Peptides were two-fold serially diluted with D-PBS from about 20 μL of a starting concentration of approximately 1 mg/mL. Five μL of peptide dilution were added per well and allowed to diffuse for at least about 30 minutes into the agar at […] (to allow complete diffusion). Then 10 mL of molten overlayer agarose (6% SDB, 1% agarose, 10 mM sodium phosphate buffer, pH 7.4 at about 45° C.) were added and the plates were incubated inverted at […] overnight. Plates were stained with a dilute Coomassie solution, inhibition zones were measured with calipers and net areas were calculated, then converted to pmole values by PROBIT analysis.
# [11] = system: Candida krusei; assay: Radial diffusion assay, Candida species (Table 2); assay type: cell-based
# Experimental: as §4, §5, §6
# [12] = system: Candida lusitaniae; assay: Radial diffusion assay, Candida species (Table 2); assay type: cell-based
# Experimental: as §4, §5, §6
# [13] = system: Candida parapsilosis; assay: Radial diffusion assay, Candida species (Table 2); assay type: cell-based
# Experimental: as §4, §5, §6
# [14] = system: Candida tropicalis; assay: Radial diffusion assay, Candida species (Table 2); assay type: cell-based
# Experimental: as §4, §5, §6
# [15] = system: Candida albicans SLU-1 strain; assay: Serum stability, anti-fungal activity after serum incubation by radial diffusion bioassay; assay type: in vitro ADME, rat or human serum
# Method in brief: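 Peptide at 1 mg/mL mixed with an equal volume of rat or human serum and held at 37° C. Samples taken at 0, 1, 2 and 4 h, extracted on C-18 solid phase, then analysed by HPLC, N-terminal sequencing and ESI/MS. Recovered peptides tested against C. albicans SLU-1 by radial diffusion.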
compound,measurement,setting,value
"CC(=O)N1CCN(c2ccc(OCC3COC(Cn4ccnc4)(c4ccc(Cl)cc4Cl)O3)cc2)CC1 (centres unmarked) [Ketoconazole, ketoconazole]",MFC,[1],> 10 µg/mL
same,MFC,"[2]; ATCC10231, strain ATCC 10231, read-out: Minimum Fungicidal Concentration, Candida albicans ATCC 10231",> 10 µg/mL
same,MFC,"[2]; ATCC18840, strain ATCC 18840, read-out: Minimum Fungicidal Concentration, Candida albicans ATCC 18840",> 10 µg/mL
same,MFC,"[2]; ATCC26555, strain ATCC 26555, read-out: Minimum Fungicidal Concentration, Candida albicans ATCC 26555",> 10 µg/mL
same,MFC,"[2]; ATCC44808, strain ATCC 44808, read-out: Minimum Fungicidal Concentration, Candida albicans ATCC 44808",> 10 µg/mL
same,MFC,"[2]; ATCC90028, strain ATCC 90028, read-out: Minimum Fungicidal Concentration, Candida albicans ATCC 90028",> 10 µg/mL
same,MFC,[3],> 10 µg/mL
same,MFC,[4],5 µg/mL
same,MFC,[5],> 10 µg/mL
"C[C@@H]1[C@H](O)[C@@H](C)/C=C/C=C/CC/C=C/C=C/C=C/C=C/C(O[C@H]2O[C@H](C)[C@@H](O)[C@H](N)[C@@H]2O)CC2O[C@](O)(CC(O)C(O)CCC(O)CC(O)CC(O)CC(=O)O[C@H]1C)CC(O)C2C(=O)O (some centres unmarked) [nystatin, reference compound]",pmol for a 30 mm^2 zone of inhibition against SLU-1,[6],98 pmol
same,pmol for a 30 mm^2 zone of inhibition against SLU-2G,[7],"> 1,215 pmol"
H-HHWLIQLHH-NH2 [XMP.337],C. albicans pmol/30 mm^2 zone,[8],b (No detectable activity up to 5 μg/well)
same,C. albicans pmol/30 mm^2 zone,[8]; listed as XMP.337P′,">3,350 pmol/30 mm^2 zone"
same,"Anti-fungal activity: pmol/30 mm^2 zone, Candida albicans",[9],b (No detectable activity up to 5 μg/well)
same,"Anti-fungal activity: pmol/30 mm^2 zone, Candida glabrata",[10],b (No detectable activity up to 5 μg/well)
same,"Anti-fungal activity: pmol/30 mm^2 zone, Candida krusei",[11],"5,339 pmol/30 mm^2 zone"
same,"Anti-fungal activity: pmol/30 mm^2 zone, Candida lusitaniae",[12],"6,928 pmol/30 mm^2 zone"
same,"Anti-fungal activity: pmol/30 mm^2 zone, Candida parapsilosis",[13],b (No detectable activity up to 5 μg/well)
same,"Anti-fungal activity: pmol/30 mm^2 zone, Candida tropicalis",[14],b (No detectable activity up to 5 μg/well)
same,Activity in Serum t ½ (hr.),[15],inactive
